Columns and labels:
sphingosine kinase = target: T1, sphingosine kinase (Mus musculus, UniProt Q8CI15); assay: Activation of sphingosine kinase (C17-sphingosine-1-phosphate production, HPLC); format: cell-based; conditions: F9-12 cells, 24 hours, 50 μM compound, PMA 300 nM; for C17-SIP Production: non-treated control 51.72; for increase in production of sphingosine-1-phosphate: versus non-treated control
T1 construct: host or cells: F9-12 cells
Description: The following test for activation of sphingosine kinase was performed to determine whether the effects of the above compounds upon intracellular calcium signal transfer as described in Example 1 were caused by activation of sphingosine kinase.
F9-12 cells were treated with 300 nM of PMA ([…]) as positive control, and 50 μM of each of K6PC4 and K6PC-5 for 24 hours and collected. Then, activity of sphingosine kinase was measured as production of C17-sphingosine-1-phosphate based on 50 μg of protein. Sphingosine-1-phospate was extracted from the collected cells by the steps of: (1) treating with trypsin-EDTA, (2) centrifugal separation at 1,500 rpm for 10 minutes, and (3) washing with PBS, followed by freeze-drying. Then, PBS was added to the freeze-dried product and the resultant product was treated with ultrasonic waves to destroy cells. Sphingosine-1-phosphate was determined by HPLC, and OPA (o-phthalaldehyde) reagent and boric acid buffer were added to the extracted sample and the mixture was reacted at room temperature for 20 minutes. For the HPLC quantitive analysis, fluorescence intensity was measured at each wavelength of 340 nm and 455 nm with a solution in 90% acetonitrile, and a ratio to the internal standard was calculated.

hairless mouse = format: in vivo; conditions: mouse, in vivo
Text: To evaluate effect of the sphingosine kinase activator upon inhibition of steroid side effects, a steroid was applied to a hairless mouse. Typically, side effects caused by long-term or excessive dose of steroids include skin atrophy expressed by thinning of skin and weakening of skin functions, and a rebound phenomenon including reoccurrence of conditions caused by stopping use of steroids. It is reported that the main cause for such side effects is inhibition of fibroblast activity and a decrease in collagen production (S. Hammer et al., J. Cell. Biochem, 91, 840-851, 2004), Therefore, it is expected that the compound according to the present invention enhances collagen synthesis and differentiation of keratinocytes, and thus inhibits such side effects caused by steroids. To perform a test, a steroid, i.e. 0.05% chlobetason-17-propionate, and […]-5 according to the present invention (1.0% in PEG:EtOH=7:3) were applied to a hairless mouse and changes in the skin were observed. The treating agents were applied to the back of a hairless mouse 9 times per day and the tissue was collected. Then, the epidermis and dermis were observed by carrying out the H & E staining method (hematoxylin and eosin staining) known to one skilled in the art.

RBL-2H3 cell line = assay: Intracellular calcium movement (fura-2 fluorescence); format: cell-based; conditions: RBL-2H3 cells, fura-2, FIGS. 1a to 1d
Description: First, the following experiment for calcium movement was performed in order to determine whether the above sphingosine kinase activator compounds activate sphingosine-1-phosphate, so as to cause intracellular calcium movement, which is a typical activity specific to sphingosine-1-phosphate.
The sphingosine kinase activator compounds were determined for capability of inducing intracellular calcium movement by using a RBL-2H3 cell line, which is one of the typical cell lines showing intracellular calcium movement. The cells are cultured by using an RPMI 1640 culture medium and the cells were washed simultaneously with removal of the medium. Then, 10 μM of fura-2/Am and 250 μl M of sulfinpyrazone were added thereto, followed by incubation for 30 minutes. Cell pellets were obtained by centrifugal separation and the cell pellets were dispersed in Ca^2+-free Locke's solution. The dispersion was divided into a unit of 1×10^6 cells for use in treating samples. Next, the cells were introduced into a cuvet of a fluorescence microscope, each sphingosine kinase activator compound was added thereto, and intracellular calcium movement was observed by the fluorescence microscope (RF-5310PC, Spectrofluoro photometer, SHIMADZU). When intracellular calcium ions are detected, they cause fluorescence by bonding with fura-2. Therefore, a degree of calcium movement caused by a sample was evaluated by calculating a difference between the measurement of fura-2 ([…]) bonded with calcium and that of non-bonded fura-2 ([…]).

fibroblasts = assay: Collagen synthesis in fibroblasts (PICP, collagen measuring kit); format: cell-based; conditions: 72 hours; for Amount of PICP produced in fibroblasts (average ± SEM): non-treated control 47.1 ± 9.7; for collagen synthesis increase as compared to the non-treated control: fibroblasts, 0.3 or 1.0 μg/ml (concentration not given)
Description: The following experiment was performed by using fibroblasts in order to evaluate the effect of sphingosine kinase activator upon collagen synthesis.
Each of K6PC4, K6PC-5, K6PC-7 and K6PC-9 was dissolved in DMSO at a concentration of 0.3 and 1.0 μg/ml. The solutions were used as samples and analyzed for collagen synthesis after incubation for 72 hours. 72 hours after the treatment of the sample, culture solution was discarded, cells were washed with serum-free DMEM three times, and cells were cultured again by using flesh serum-free DMEM. After incubation, supernatant in each well was combined and analyzed for the amount of PICP (procollagen type I C-peptide) by using a collagen measuring kit. The standard solution contained in the collagen measuring kit was diluted with a sample and absorption at 450 nm was measured to construct a standard concentration curve (see the following Table 2).
To an antibody-coated microtiter plate comprising a primary collagen antibody applied unifomrily thereto, 100 μl of an antibody-POD conjugate solution and the cell supernatant collected as described above were added, followed by incubation at 37° C. for 3 hours, to induce an antigen-antibody reaction. Then, the reaction mixture was subjected to washing and color developing. After the reaction, the reaction mixture developed a yellow color, wherein the yellowness depended on reaction degrees. Also, 96 well plates developing a yellow color were determined at 450 nm by using a microtiter plate reader.

keratinocytes = assay: Differentiation of keratinocytes (western blotting of involucrin and keratin-1); format: cell-based; conditions: 10 μM, 48 hours, FIG. 2
Description: In order to evaluate the effect of the above compound according to the present invention upon differentiation of keratinocytes, each of K6PC4, K6PC-5, K6PC-7 and K6PC-9 was dissolved in DMSO at a concentration of 10 μM and used as sample. Evaluation was performed by using the western blotting method. As differentiation markers, involucrin and keratine-1, which were differentiation markers of keratinocytes, were measured. Next, 48 hours after the treatment of samples, the culture solution was discarded and the cells were washed with PBS and collected by filtering. The collected cells were washed again and subjected to centrifugal separation to remove supernatant. The cells were dissolved in a solvent and subjected to centrifugal separation at 12,000 rpm for 10 minutes, thereby removing cell membranes, etc. Protein concentration was determined by the Bradford method. Proteins were separated by mini gel type SDS-PAGE (polyacrylamide gel electrohoresis) and transferred to a PVDF (polyvinylidene fluoride) membrane at 100V for 1 hour, so that gel-like proteins were subjected to blotting with a transfer membrane. Then, the membrane was colored with Ponceau S solution to determine whether transfer was accomplished or not. The membrane was blocked by using TTBS (TBS+0.1% Tween 20) solution containing 5% non-fat dried milk. In order to check the amount of involucrin as differentiation marker of keratinocytes, primary antibody involucrin (Neomarkers Co.) was diluted at a ratio of about 1/200 to 1.400, and keratin-1 (Covance Co.) was diluted at a ratio of about 1/1000. Reactions were performed overnight at 4° C. As secondary antibody, anti-mouse IgG and anti-rabbit IgG combined with horseradish peroxidase (HRP) was diluted at a ratio of 1:2000. Then, the secondary antibody was bonded to the primary antibody by making them react at room temperature for 1 hour. The membrane was washed with TTBS three times, reacted with an ECL substrate (Amersham Co.) for 1-3 minutes, and exposed to X-ray films.

T1 sequence (Q8CI15 1-381 isoform Q8CI15-3): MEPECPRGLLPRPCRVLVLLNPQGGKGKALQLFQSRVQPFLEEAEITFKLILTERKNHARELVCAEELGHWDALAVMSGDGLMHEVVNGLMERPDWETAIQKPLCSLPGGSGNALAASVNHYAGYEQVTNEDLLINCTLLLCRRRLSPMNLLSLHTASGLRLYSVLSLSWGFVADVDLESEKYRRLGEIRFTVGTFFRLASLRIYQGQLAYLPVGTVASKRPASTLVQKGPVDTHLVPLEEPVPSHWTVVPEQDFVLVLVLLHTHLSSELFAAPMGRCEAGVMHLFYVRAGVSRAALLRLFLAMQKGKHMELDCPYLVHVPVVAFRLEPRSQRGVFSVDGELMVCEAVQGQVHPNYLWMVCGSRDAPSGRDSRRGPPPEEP

Structure (SMILES): CCCCCCCCCCCCCC(=O)O[C@@H]1[C@@H](C)[C@@]2(O)[C@@H](C=C(CO)C[C@]3(O)C(=O)C(C)=C[C@@H]23)[C@@H]2C(C)(C)[C@]12OC(C)=O [PMA, phorbol microstate acetate, reference compound]
- C17-SIP Production (sphingosine kinase): 76.76 pmol/min/mg
- increase in production of sphingosine-1-phosphate (sphingosine kinase): about 48%

Structure (SMILES): CCC(=O)O[C@]1(C(=O)CCl)[C@@H](C)C[C@H]2[C@@H]3CCC4=CC(=O)C=C[C@]4(C)[C@@]3(F)[C@@H](O)C[C@@]21C [chlobetason-17-propionate, reference compound]
- changes in epidermis and dermis (steroid applied alone) (hairless mouse): significant thinning of the epidermis and abnormal changes in the dermis

Structure (SMILES): CCCCCCCC(=O)C(CCCCCC)C(=O)NCC(O)CO (stereo not drawn) [K6PC-4, N-(2,3-dihydroxypropyl)-2-hexyl-3-oxo-decanamide]
- intracellular calcium movement (RBL-2H3 cell line): caused intracellular calcium movement
- Amount of PICP produced in fibroblasts (average ± SEM) (fibroblasts; 0.3 μg/ml): 62.01 ± 2.5
- Amount of PICP produced in fibroblasts (average ± SEM) (fibroblasts; 1.0 μg/ml): 80.51 ± 4.4
- collagen synthesis increase as compared to the non-treated control (fibroblasts): about 1.7 times
- C17-SIP Production (sphingosine kinase): 67.69 pmol/min/mg
- increase in production of sphingosine-1-phosphate (sphingosine kinase): about 30%
- expression of differentiation markers (involucrin, keratin-1) (keratinocytes): expressed the differentiation markers

Structure (SMILES): CCCCCCCC(=O)C(CCCCCC)C(=O)NC(C)(CO)CO (stereo not drawn) [K6PC-7, N-(2-methyl-1,3-dihydroxyisopropyl)-2-hexyl-3-oxo-decanamide]
- intracellular calcium movement (RBL-2H3 cell line): caused intracellular calcium movement
- Amount of PICP produced in fibroblasts (average ± SEM) (fibroblasts; 0.3 μg/ml): 90.3 ± 12.5
- Amount of PICP produced in fibroblasts (average ± SEM) (fibroblasts; 1.0 μg/ml): 87.3 ± 14.9
- collagen synthesis increase as compared to the non-treated control (fibroblasts): about 1.9 times
- C17-SIP Production (sphingosine kinase): 75.51 pmol/min/mg
- increase in production of sphingosine-1-phosphate (sphingosine kinase): about 46%
- expression of differentiation markers (involucrin, keratin-1) (keratinocytes): expressed the differentiation markers

Structure (SMILES): CCCCCCCC(=O)C(CCCCCC)C(=O)NCCO (stereo not drawn) [K6PC-9, N-ethanol-2-hexyl-3-oxo-decanamide]
- intracellular calcium movement (RBL-2H3 cell line): caused intracellular calcium movement
- Amount of PICP produced in fibroblasts (average ± SEM) (fibroblasts; 0.3 μg/ml): 95.0 ± 5.2
- Amount of PICP produced in fibroblasts (average ± SEM) (fibroblasts; 1.0 μg/ml): 86.7 ± 8.2
- collagen synthesis increase as compared to the non-treated control (fibroblasts): about 2.0 times
- C17-SIP Production (sphingosine kinase): 66.72 pmol/min/mg
- increase in production of sphingosine-1-phosphate (sphingosine kinase): about 30%
- expression of differentiation markers (involucrin, keratin-1) (keratinocytes): expressed the differentiation markers
